# Laboratory results published in PMC12663243 (Scientific Reports, 2025).
# Counter-ions that a name gives are not always drawn. Positions of bridges follow the written chain, without caps; N, C: chain ends. Non-standard residues stand in square brackets, D forms with d. Residues, ends and D or L forms follow the SMILES beside them. Hyp = O=C(O)[C@@H]1C[C@@H](O)CN1
# What was measured:
# human SSTR4 [1] = molecular target: T1, human SSTR4 (Homo sapiens, UniProt P31391); type: cell-based
# human SSTR1 = human SSTR1 (Homo sapiens, UniProt P30872); type: cell-based
# Sequence of human SSTR1 (P30872 whole entry): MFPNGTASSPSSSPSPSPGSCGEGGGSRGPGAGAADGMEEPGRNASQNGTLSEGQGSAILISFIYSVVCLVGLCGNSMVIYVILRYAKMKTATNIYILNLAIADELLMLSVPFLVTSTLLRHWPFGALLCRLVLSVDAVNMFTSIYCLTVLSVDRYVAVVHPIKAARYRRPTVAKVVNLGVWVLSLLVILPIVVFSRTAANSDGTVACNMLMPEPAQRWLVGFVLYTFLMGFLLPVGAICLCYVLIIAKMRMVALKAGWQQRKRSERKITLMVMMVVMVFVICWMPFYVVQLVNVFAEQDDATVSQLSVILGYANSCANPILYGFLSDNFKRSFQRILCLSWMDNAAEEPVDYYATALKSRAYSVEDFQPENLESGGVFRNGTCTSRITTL
# human SSTR4 [2] = molecular target: T1, human SSTR4; assay: cell-based
# SSTR4 = conditions: binding assays ref 48; cited from earlier work
# C57Bl/6j mice = conditions: mouse, in vivo, ip, 5 mg/kg
# T1 sequence (P31391 whole entry): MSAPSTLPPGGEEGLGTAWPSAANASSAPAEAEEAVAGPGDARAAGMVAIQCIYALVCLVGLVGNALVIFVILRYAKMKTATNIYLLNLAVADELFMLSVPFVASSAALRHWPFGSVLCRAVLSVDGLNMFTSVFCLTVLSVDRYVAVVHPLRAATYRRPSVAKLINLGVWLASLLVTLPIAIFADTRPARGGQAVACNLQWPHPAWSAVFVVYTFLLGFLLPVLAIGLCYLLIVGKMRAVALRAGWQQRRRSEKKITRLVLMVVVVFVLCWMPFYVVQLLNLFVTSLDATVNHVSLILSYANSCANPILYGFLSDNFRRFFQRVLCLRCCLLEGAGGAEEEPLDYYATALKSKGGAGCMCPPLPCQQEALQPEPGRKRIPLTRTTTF
structure (smiles),measurement,setting,value
CC(C)C[C@H](NC(=O)[C@@H]1C[C@@H](O)CN1C(=O)[C@@H]1CSSC[C@H](NC(=O)[C@@H](NC(=O)[C@@H]2CCCN2)C(C)C)C(=O)N[C@@H](C)C(=O)N[C@@H](CCCCN)C(=O)N[C@@H](Cc2ccccc2)C(=O)NCC(=O)N1)C(=O)O [Fj1A1] (H-PVCAKFGC[Hyp]L-OH; disulfide 3-8; N-terminus assumed),decrease in potency at SSTR4,human SSTR4 [1],5000 fold
CC(C)C[C@H](NC(=O)[C@@H]1C[C@@H](O)CN1C(=O)[C@@H]1CSSC[C@H](NC(=O)[C@@H](NC(=O)[C@@H]2CCCN2)C(C)C)C(=O)N[C@H](Cc2c[nH]c3ccccc23)C(=O)N[C@@H](CCCCN)C(=O)N[C@@H](C)C(=O)NCC(=O)N1)C(=O)O [Fj1A3] (H-PVC[dW]KAGC[Hyp]L-OH; disulfide 3-8; N-terminus assumed),decrease in potency at SSTR4,human SSTR4 [1],630 fold
CC(C)C[C@H](NC(=O)[C@@H]1C[C@@H](O)CN1C(=O)[C@@H]1CSSC[C@H](NC(=O)[C@@H](NC(=O)[C@@H]2CCCN2)C(C)C)C(=O)N[C@H](Cc2c[nH]c3ccccc23)C(=O)N[C@@H](CCCCN)C(=O)N[C@@H](Cc2ccccc2)C(=O)N[C@@H](C)C(=O)N1)C(=O)O [Fj1A4] (H-PVC[dW]KFAC[Hyp]L-OH; disulfide 3-8; N-terminus assumed),increase in potency at SSTR4,human SSTR4 [1],6.2 fold
CC(C)C[C@H](NC(=O)[C@@H]1CCCN1C(=O)[C@@H]1CSSC[C@H](NC(=O)[C@@H](NC(=O)[C@@H]2CCCN2)C(C)C)C(=O)N[C@H](Cc2c[nH]c3ccccc23)C(=O)N[C@@H](CCCCN)C(=O)N[C@@H](Cc2ccccc2)C(=O)NCC(=O)N1)C(=O)O [Fj1A7] (H-PVC[dW]KFGCPL-OH; disulfide 3-8; N-terminus assumed),effect on SSTR1 potency,human SSTR1,increase in SSTR1 potency
same,effect on SSTR4 potency,human SSTR4 [1],virtually no effect
CC(C)C[C@H](NC(=O)[C@@H]1C[C@@H](O)CN1C(=O)[C@@H]1CSSC[C@H](NC(=O)[C@@H](NC(=O)[C@@H]2CCCN2)C(C)C)C(=O)N[C@H](Cc2c[nH]c3ccccc23)C(=O)N[C@@H](CCCCN)C(=O)N[C@H](Cc2ccccc2)C(=O)NCC(=O)N1)C(=O)O [Fj1A8] (H-PVC[dW]K[dF]GC[Hyp]L-OH; disulfide 3-8; N-terminus assumed),decrease in potency at SSTR4,human SSTR4 [1],42 fold
"NCCCC[C@@H]1NC(=O)[C@@H](Cc2c[nH]c3ccccc23)NC(=O)[C@@H](N)CSSC[C@@H](C(=O)O)NC(=O)CNC(=O)[C@H](Cc2ccccc2)NC1=O [Fj1A9, Cys3-D-Trp4-Lys5-Phe6-Gly7-Cys8] (H-C[dW]KFGC-OH; disulfide 1-6; N-terminus assumed)",decrease in potency at SSTR4,human SSTR4 [1],47 fold
CC(C)C[C@H](NC(=O)[C@@H]1C[C@@H](O)CN1C(=O)[C@@H]1CSSC[C@H](N)C(=O)N[C@H](Cc2c[nH]c3ccccc23)C(=O)N[C@@H](CCCCN)C(=O)N[C@@H](Cc2ccccc2)C(=O)NCC(=O)N1)C(=O)O [Fj1A10] (H-C[dW]KFGC[Hyp]L-OH; disulfide 1-6; N-terminus assumed),decrease in potency at SSTR4,human SSTR4 [1],13 fold
CC(C)[C@H](NC(=O)[C@@H]1CCCN1)C(=O)N[C@H]1CSSC[C@@H](C(=O)O)NC(=O)CNC(=O)[C@H](Cc2ccccc2)NC(=O)[C@H](CCCCN)NC(=O)[C@@H](Cc2c[nH]c3ccccc23)NC1=O [Fj1A11] (H-PVC[dW]KFGC-OH; disulfide 3-8; N-terminus assumed),effect on SSTR4 potency,human SSTR4 [1],virtually equipotent
CC(C)C[C@H](NC(=O)[C@@H]1C[C@@H](O)CN1C(=O)[C@@H]1CSSC[C@H](NC(=O)[C@H](Cc2ccccc2)NC(=O)[C@@H](N)CC(C)C)C(=O)N[C@H](Cc2c[nH]c3ccccc23)C(=O)N[C@@H](CCCCN)C(=O)N[C@@H](Cc2ccccc2)C(=O)NCC(=O)N1)C(=O)O [Fj1A13] (H-LFC[dW]KFGC[Hyp]L-OH; disulfide 3-8; N-terminus assumed),increase in potency at SSTR4,human SSTR4 [1],11 fold
CC(C)[C@H](NC(=O)[C@@H]1CCCN1)C(=O)N[C@H]1CSSC[C@@H](C(=O)N[C@@H](Cc2c[nH]c3ccccc23)C(=O)O)NC(=O)CNC(=O)[C@H](Cc2ccccc2)NC(=O)[C@H](CCCCN)NC(=O)[C@@H](Cc2c[nH]c3ccccc23)NC1=O [Fj1A14] (H-PVC[dW]KFGCW-OH; disulfide 3-8; N-terminus assumed),increase in potency at SSTR4,human SSTR4 [1],85 fold
CC(C)C[C@H](NC(=O)[C@@H]1C[C@@H](O)CN1C(=O)[C@@H]1CSSC[C@H](NC(=O)[C@@H](NC(=O)[C@@H]2CCCN2)C(C)C)C(=O)N[C@H](Cc2c[nH]c3ccccc23)C(=O)N[C@@H](CCCCN)C(=O)N[C@@H](Cc2ccccc2)C(=O)N[C@@H](CO)C(=O)N1)C(=O)O [Fj1A15] (H-PVC[dW]KFSC[Hyp]L-OH; disulfide 3-8; N-terminus assumed),increase in potency at SSTR4,human SSTR4 [1],14 fold
CC(C)C[C@H](NC(=O)[C@@H]1C[C@@H](O)CN1C(=O)[C@@H]1CSSC[C@H](NC(=O)[C@@H](NC(=O)[C@@H]2CCCN2)C(C)C)C(=O)N[C@H](Cc2c[nH]c3ccccc23)C(=O)N[C@@H](CCCCN)C(=O)N[C@@H](Cc2ccccc2)C(=O)N[C@@H]([C@@H](C)O)C(=O)N1)C(=O)O [Fj1A16] (H-PVC[dW]KFTC[Hyp]L-OH; disulfide 3-8; N-terminus assumed),effect on SSTR1 potency,human SSTR1,slight increase in SSTR1 activity
same,effect on SSTR4 potency,human SSTR4 [1],retained the SSTR4 potency of Fj1
CC(C)C[C@H](NC(=O)[C@@H]1C[C@@H](O)CN1C(=O)[C@@H]1CSSC[C@H](NC(=O)[C@@H](NC(=O)[C@@H]2CCCN2)C(C)C)C(=O)N[C@H](Cc2c[nH]c3ccccc23)C(=O)N[C@@H](CCCCN)C(=O)N[C@@H](Cc2ccccc2)C(=O)N[C@@H](CC(N)=O)C(=O)N1)C(=O)O [Fj1A17] (H-PVC[dW]KFNC[Hyp]L-OH; disulfide 3-8; N-terminus assumed),increase in potency at SSTR4,human SSTR4 [1],6.8 fold
CC(C)[C@H](NC(=O)[C@@H]1CCCN1)C(=O)N[C@H]1CSSC[C@@H](C(=O)N[C@@H](Cc2c[nH]c3ccccc23)C(=O)O)NC(=O)[C@H](CO)NC(=O)[C@H](Cc2ccccc2)NC(=O)[C@H](CCCCN)NC(=O)[C@@H](Cc2c[nH]c3ccccc23)NC1=O [Fj1A18] (H-PVC[dW]KFSCW-OH; disulfide 3-8; N-terminus assumed),effect on SSTR4 potency,human SSTR4 [1],well tolerated
CC(C)[C@H](NC(=O)[C@@H]1CCCN1)C(=O)N[C@H]1CSSC[C@@H](C(=O)N[C@@H](Cc2c[nH]c3ccccc23)C(=O)O)NC(=O)[C@H]([C@@H](C)O)NC(=O)[C@H](Cc2ccccc2)NC(=O)[C@H](CCCCN)NC(=O)[C@@H](Cc2c[nH]c3ccccc23)NC1=O [Fj1A19] (H-PVC[dW]KFTCW-OH; disulfide 3-8; N-terminus assumed),effect on SSTR4 potency,human SSTR4 [1],slight decrease in SSTR4 potency
CC(C)[C@H](NC(=O)[C@@H]1CCCN1)C(=O)N[C@H]1CSSC[C@@H](C(=O)N[C@@H](Cc2c[nH]c3ccccc23)C(=O)O)NC(=O)[C@H](CC(N)=O)NC(=O)[C@H](Cc2ccccc2)NC(=O)[C@H](CCCCN)NC(=O)[C@@H](Cc2c[nH]c3ccccc23)NC1=O [Fj1A20] (H-PVC[dW]KFNCW-OH; disulfide 3-8; N-terminus assumed),effect on SSTR4 potency,human SSTR4 [1],slight decrease in SSTR4 potency
CC(C)[C@H](NC(=O)[C@@H]1CSSC[C@H](NC(=O)[C@H](CC(N)=O)NC(=O)[C@@H](N)Cc2ccc(O)cc2)C(=O)N[C@@H](Cc2c[nH]cn2)C(=O)N[C@H](Cc2c[nH]c3ccccc23)C(=O)N[C@@H](CCCCN)C(=O)N[C@@H]([C@@H](C)O)C(=O)N1)C(=O)O [Fj2] (H-YNCH[dW]KTCV-OH; disulfide 3-8; N-terminus assumed),EC50,human SSTR4 [2],2000 nM
Cc1ccc(S(=O)(=O)N[C@@H](CCN)C(=O)N[C@@H](Cc2ccccc2)C(N)=O)c2ccccc12 [J-2156],selectivity for SSTR4 over SSTR1,SSTR4,approximately 360 fold
same,selectivity for SSTR4 over SSTR5,SSTR4,~390 fold
"CN1CC[C@]23c4c5ccc(O)c4O[C@H]2[C@@H](O)C=C[C@H]3[C@H]1C5 [morphine, morphine sulfate]",duration of action,C57Bl/6j mice,shorter
same,peak efficacy,C57Bl/6j mice,higher peak efficacy than Fj1
